The experiment relates to bone marrow stromal cells (BMSC). The experiment in a line: Ex vivo cultures of BMSC from PA-treated mice (alizarin red, ALP, CFU-OB). The experiment is classed as in vivo, C57BL/6 mice. On the procedure:
To establish adherent bone marrow cultures, both tibiae from PA- and vehicle-treated animals (n=6 per group) were flushed using a 21-gauge needle attached to a 10 ml syringe filled with Dulbecco's modified Eagle's Medium (DMEM) (GIBCO BRL, Gaithersburg, Md., USA). Cells from both tibiae were filtered through a cell strainer with 70-micron nylon mesh (BD Bioscience, Bedford, Mass., USA) and then combined to produce a volume of 2 ml containing ˜10^7 cells/ml. Six-well plate cultures were then established in triplicate, with each well containing a 100-μl aliquot of cell suspension combined with 4 ml of fresh -MEM medium. […]
To induce differentiation, a total of 10^4 cells were diluted in osteogenic medium (prepared with DMEM, 10% FCS, […] dexamethasone, 10 mmol/L β glycerol phosphate and 50 μg/mL ascorbic acid) and plated in six well plates. […] For alkaline phosphatase quantification, the colonies with more than 10% of cells staining positive for ALP were considered as colony forming units-osteoblasts (CFU-OB). For alizarin red quantification, matrix mineralization was quantified by extracting the Alizarin red staining with 100 mM cetypyridinium chloride (Sigma, St. Louis, Mo., USA) at room temperature for 3 h. The absorbance of the extracted Alizarin red S staining was measured at 570 nm.

Consider `O=C(O)c1ccccn1` [PA, pyridine-2-carboxylic acid], for which the “capacity to mineralise (alizarin red), ex vivo BMSC” value (SHAM and OVX mice treated 6 weeks, 2 weeks culture in osteogenic media) was “significantly capacity to mineralise”. Moreover, for the setting “cultures from PA-treated vs vehicle treated mice”, the “number of colony forming units-osteoblasts (CFU-OB)” value is recorded as “significantly higher”.

These data come from patent US9642897B2, “Treatment of bone diseases” (THE UNIVERSITY OF SYDNEY, priority 2011, dated 2017).
